Test results from the supplement of paper PMC10307832.

What was measured:
Experiment in all cases: relative viability (nuclei count vs DMSO), 5 days (fraction); higher = more cells survive
[1] = compound: NS(=O)(=O)OC[C@@H]1C[C@@H](n2ccc3c(N[C@H]4CCc5ccccc54)ncnc32)C[C@@H]1O [MLN4924] + Nc1ncn([C@H]2C[C@H](O)[C@@H](CO)O2)c(=O)n1 [Decitabine] (partner 2 µM)
How it was run: (§1)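 After 5 days of treatment, lung cancer cells in 1536-well plates were fixed and stained in a single step (final 0.05% Triton X-100, 1% formaldehyde, 1 ug/ml Hoechst) and their nuclei counted on 4× images. Treatment had been applied by pin tool the day after seeding as one drug alone or as a fixed anchor-drug dose with five library-drug doses (not always all listed) in √10 steps. Relative viability is the nuclei count of treated wells divided by that of vehicle wells, and values are medians of duplicate plates.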

[2] = compound: CC[C@H](C)N1C=C(C2=C(C=C(C=C21)C3=CN=C(C=C3)N4CCNCC4)C(=O)NCC5=C(C=C(NC5=O)C)C)C [GSK126] + CC1(C)CCC(c2ccc(Cl)cc2)=C(CN2CCN(c3ccc(C(=O)NS(=O)(=O)c4ccc(N[C@H](CCN5CCOCC5)CSc5ccccc5)c(S(=O)(=O)C(F)(F)F)c4)cc3)CC2)C1 [Navitoclax] (partner 0.5 µM)
How it was run: as §1

[3] = compound: NS(=O)(=O)OC[C@@H]1C[C@@H](n2ccc3c(N[C@H]4CCc5ccccc54)ncnc32)C[C@@H]1O [MLN4924] + O=C(CCCCCCC(=O)Nc1ccccc1)NO [Vorinostat] (partner 1 µM)
How it was run: as §1

[4] = compound: NS(=O)(=O)OC[C@@H]1C[C@@H](n2ccc3c(N[C@H]4CCc5ccccc54)ncnc32)C[C@@H]1O [MLN4924] + NC(=O)Nc1cc(-c2cccc(F)c2)sc1C(=O)N[C@H]1CCCNC1 [AZD7762] (partner 0.2 µM)
How it was run: as §1

| Cell Line | relative viability ([1]; first compound 0.04 µM) | relative viability ([1]; first compound 0.1265 µM) | relative viability ([1]; first compound 0.4 µM) | relative viability ([1]; first compound 1.265 µM) | relative viability ([1]; first compound 4 µM) | relative viability ([2]; first compound 0.08 µM) | relative viability ([2]; first compound 0.253 µM) | relative viability ([2]; first compound 0.8 µM) | relative viability ([2]; first compound 2.53 µM) | relative viability ([2]; first compound 8 µM) | relative viability ([3]; first compound 0.04 µM) | relative viability ([3]; first compound 0.1265 µM) | relative viability ([3]; first compound 0.4 µM) | relative viability ([3]; first compound 1.265 µM) | relative viability ([3]; first compound 4 µM) | relative viability ([4]; first compound 0.04 µM) | relative viability ([4]; first compound 0.1265 µM) | relative viability ([4]; first compound 0.4 µM) | relative viability ([4]; first compound 1.265 µM) | relative viability ([4]; first compound 4 µM) |
| --- | --- | --- | --- | --- | --- | --- | --- | --- | --- | --- | --- | --- | --- | --- | --- | --- | --- | --- | --- | --- |
| A-427 | 0.445 | 0.421 | 0.309 | 0.282 | 0.265 | 1.04 | 1 | 0.836 | 0.959 | 0.845 | 0.546 | 0.403 | 0.309 | 0.231 | 0.237 | 0.502 | 0.324 | 0.366 | 0.172 | 0.217 |
| HCC-15 | 0.322 | 0.217 | 0.17 | 0.0917 | 0.111 | 0.719 | 0.662 | 0.658 | 0.676 | 0.623 | 0.643 | 0.444 | 0.289 | 0.112 | 0.106 | 1.13 | 0.971 | 0.645 | 0.0981 | 0.125 |
| NCI-H2342 | 0.695 | 0.75 | 0.718 | 0.643 | 0.468 | – | – | – | – | – | 0.809 | 0.814 | 0.837 | 0.873 | 0.625 | 0.412 | 0.568 | 0.551 | 0.523 | 0.452 |
| NCI-H2023 | 0.177 | 0.178 | 0.119 | 0.0603 | 0.062 | 1.04 | 0.984 | 1.04 | 1.09 | 0.995 | 0.548 | 0.457 | 0.166 | 0.0535 | 0.0695 | – | – | – | – | – |
| ABC-1 | 1.12 | 1.33 | 0.929 | 0.28 | 0.402 | – | – | – | – | – | 0.946 | 1.15 | 0.572 | 0.279 | 0.363 | 0.985 | 1.17 | 0.52 | 0.23 | 0.258 |
